{"source": "patent US9097673B2", "about": "“Processes and kits for determining multi-drug resistance of cells” (ENZO LIFE SCIENCES, INC., priority 2010, dated 2015)", "key": {"[1]": {"test_system": "CHO K1 cell line", "experiment": "Dye uptake flow cytometry MDR assay;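 for D-values Post Inhibitor Treatment (compared to uninhibited cells), CsA: flow cytometry of dye-loaded cells, Kolmogorov-Smirnov D value (0 to 1.0) comparing fluorescence with versus without inhibitor, made negative when the uninhibited control was brighter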;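 for D-values Post Inhibitor Treatment (compared to uninhibited cells), FTC: flow cytometry of dye-loaded cells, Kolmogorov-Smirnov D value (0 to 1.0) comparing fluorescence with versus without inhibitor, made negative when the uninhibited control was brighter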;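 for D-values Post Inhibitor Treatment (compared to uninhibited cells), MK-571: flow cytometry of dye-loaded cells, Kolmogorov-Smirnov D value (0 to 1.0) comparing fluorescence with versus without inhibitor, made negative when the uninhibited control was brighter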;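 for D-values Post Inhibitor Treatment (compared to uninhibited cells), Verapamil: flow cytometry of dye-loaded cells, Kolmogorov-Smirnov D value (0 to 1.0) comparing fluorescence with versus without inhibitor, made negative when the uninhibited control was brighter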", "format": "cell-based, hamster", "settings": "for D-values, Cyclosporin A / D-values, Novobiocin / D-values, Probenecid / D-values, Verapamil / MAF, Cyclosporin A / MAF, Novobiocin / MAF, Probenecid / MAF, Verapamil: Fluo-8 AM probe, dye uptake", "description": "(§1) Concentrations of the modulators used in the experiments were non-toxic to the cells (based upon standard 3-(4,5-Dimethylthiazol-2-Yl)-2,5-Diphenyltetrazolium Bromide (MTT) testing, data not shown). Fluo-8™ was used in all experiments at 5 μM, and Rhod-4™—at 4 μM final concentrations.\n(§2) Kolmogorov-Smirnov statistics measures the difference between two distribution functions and generates a D value ranging between 0 and 1.0, with higher values indicating a greater difference between the distribution functions. The D value generated by the KS statistics was modified by ascribing a negative value if the fluorescence of a negative control (no inhibitor) was brighter than the fluorescence of the sample with inhibitor."}, "[2]": {"test_system": "HeLa cell line", "experiment": "Dye uptake flow cytometry MDR assay", "format": "cell-based, human", "settings": "HeLa, dye uptake", "description": "as §1, §2"}, "[3]": {"test_system": "Hep G2 cells", "experiment": "Dye uptake flow cytometry MDR assay", "format": "cell-based, human", "set-up": "key: Kolmogorov-Smirnov D statistic comparing fluorescence distributions", "settings": "HepG2, dye uptake", "experimental": "Cells were grown on tissue culture dishes and on the day of assay were trypsinized and washed twice with warm (37° C.) phosphate-buffered saline (PBS). Post-wash, the cells were re-suspended in warm phenol red indicator-free medium at a density of 1×10^6/ml. For each detection set, sixteen tubes (5 samples in triplicates plus non-stained control for background fluorescence) in numbered tubes each containing 5×10^5/cells (0.5 ml) were prepared. […] After incubation for 5 min at 37° C., 0.25 ml of warm medium with Fluo-8™ AM probe (5 μM final concentration) or Rhod-4™ AM probe (2 μM final concentration) was added to each tube excluding non-stained control that receives plain medium and cells were incubated for 30 min at 37° C. and analyzed immediately by flow cytometry. In the second set of the tubes, the reaction was stopped by rapid centrifugation (1 min) at relatively low speed (200×g). After wash with ice-cold PBS and discarding the supernatant, cells were re-suspended in 0.5 ml of ice-cold medium and kept on ice until flow cytometry analysis. The third set of cells simply was spun down (1 min, 200×g) to remove the excess of the probe, resuspended in ice-cold medium and kept on ice until flow cytometry analysis.\nFlow cytometry experiments were performed using a FACS Calibur benchtop flow cytometer (BD Biosciences) equipped with a blue (488 nm) laser, and the signals were registered in the FITC (530/30 filter), PE (585/42 filter) and PerCP (670 LP filter) channels. Fluo-8™ dye fluorescence was measured in the FL1 channel, and Rhod-4™ dye fluorescence—in the FL2 channel. Flow cytometry data were analyzed by comparison of median fluorescence or using Kolmogorov-Smirnov statistics [Young, J Histochem Cytochem 25:935-941 (1977)] or by calculating MAF values (MDR Activity Factor) using the following formula: MAF=100*((MFIinh−MFI0)/MFIinh), where MFIinh and MFI0 are mean fluorescence intensity values measured in the presence and absence of inhibitor [Hollo et al., Biochem Piophys Acta. 1191:384-388 (1994)].\nBoth human ileocecal colorectal carcinoma cell line HCT-8 (reported to over-express P-gp and, to a lesser extent, MRP [Hunter et al., Br J Cancer. 64:437-444 (1991); Collington et al., Biochem Pharmacol 44:417-424 (1992)] and hepatocellular carcinoma Hep G2 (reported to over-express MRP [Roelofsen et al., Gastroenterology 112:511-521 (1997), Cantz et al., Am J Physiol Gastrointest Liver Physiol. 278:G522-G531 (2000)] were obtained from ATCC. HCT-8 cells were routinely cultured in RPMI-1640 Medium with 2 mM L-glutamine, 10 mM HEPES, 1 mM sodium piruvate, 4.5 g/L glucose, 1.5 g/L sodium bicarbonate (ATCC), supplemented with 10% horse serum (ATCC) and 100 U/ml penicillin, 100 ug/ml streptomycin (Sigma-Aldrich, St. Louis, Mo.). Hep G2 cells were routinely cultured in Eagle's Minimum Essential Medium with low glucose (ATCC), supplemented with 10% heat inactivated fetal bovine serum (ATCC) and 100 U/ml penicillin, 100 ug/ml streptomycin (Sigma-Aldrich, St. Louis, Mo.). Cell cultures were maintained in a humidified incubator at 37° C., with 5% CO2 atmosphere. Stock solutions of the probes and inhibitors were prepared, as described in Examples 2 and 3. Cells were grown in tissue culture dishes and on the day of assay were treated according to a dye uptake protocol and analyzed by flow cytometry, as described in Example 3."}, "[4]": {"test_system": "CHO K1, A549 and HeLa cells", "experiment": "MTT test of dye toxicity", "format": "cell-based", "settings": "5 μM Fluo-8 AM, 3 h at 37° C.", "experimental": "Three model cell lines (CHO K1, A549 and HeLa cells) were seeded in 96 well plates (5×10^3 cells/well) and 24 h later were treated with the working concentrations of dyes (0.5 μM of Calcein AM, 5 μM of Fluo-8™ AM, 4 μM of Rhod-4™ AM) used in the MDR assay for 3 h at 37° C. Then reagents were removed and a standard MTT test was performed as described elsewhere [Mosmann T., J Immunol Methods 65(1-2):55-63 (1983)]. Viability was calculated as a ratio of OD595 for treated cells to the OD595 of untreated control cells (FIG. 4). […] Additionally, the concentration of Rhod-4™ AM can be decreased further for particularly sensitive cell lines."}, "[5]": {"settings": "CHO K1, dual probes Fluo-8 AM (FL1) + Pheophorbide A (FL3)"}, "[6]": {"settings": "CHO K1, dye uptake, average of three independent experiments (Table 10)"}, "[7]": {"settings": "CHO K1, dye uptake, average of three representative experiments (Table 6)"}, "[8]": {"settings": "CHO K1, dye uptake, representative experiment (Table 8)"}, "[9]": {"settings": "average of three representative experiments (Table 6)"}, "[10]": {"settings": "representative experiment (Table 8)"}}, "data": [{"smiles": "CC(=O)OCOC(=O)CN(CC(=O)OCOC(C)=O)c1ccccc1OCCOc1cc(-c2c3ccc(=O)cc-3oc3cc(OCOC(C)=O)ccc23)ccc1N(CC(=O)OCOC(C)=O)CC(=O)OCOC(C)=O", "note": "[Fluo-8 ™ AM]", "values": [{"measurement": "D-values Post Inhibitor Treatment (compared to uninhibited cells), CsA", "setting": "[1]; [5]", "result": 0.94}, {"measurement": "D-values Post Inhibitor Treatment (compared to uninhibited cells), FTC", "setting": "[1]; [5]", "result": 0.56}, {"measurement": "D-values Post Inhibitor Treatment (compared to uninhibited cells), MK-571", "setting": "[1]; [5]", "result": 0.98}, {"measurement": "D-values Post Inhibitor Treatment (compared to uninhibited cells), Verapamil", "setting": "[1]; [5]", "result": 0.9}, {"measurement": "D-value, Cyclosporine A", "setting": "[1]; [6]", "result": 0.89}, {"measurement": "D-value, FTC", "setting": "[1]; [6]", "result": 0.28}, {"measurement": "D-value, MK-571", "setting": "[1]; [6]", "result": 0.95}, {"measurement": "D-value, Novobiocin", "setting": "[1]; [6]", "result": 0.68}, {"measurement": "D-value, Verapamil", "setting": "[1]; [6]", "result": 0.74}, {"measurement": "D-value, Fumitremorgan C", "setting": "[1]; [7]", "result": 0.48}, {"measurement": "D-value, Probenecid", "setting": "[1]; [7]", "result": 0.69}, {"measurement": "D-value, Verapamil", "setting": "[1]; [7]", "result": 0.84}, {"measurement": "D-value, Cyclosporine A", "setting": "[1]; [8]", "result": 0.96}, {"measurement": "D-value, Novobiocin", "setting": "[1]; [8]", "result": 0.78}, {"measurement": "D-value, Probenecid", "setting": "[1]; [8]", "result": 0.89}, {"measurement": "D-value, Verapamil", "setting": "[1]; [8]", "result": 0.83}, {"measurement": "D-values, Cyclosporin A", "setting": "[1]; No Wash", "result": 0.97}, {"measurement": "D-values, Novobiocin", "setting": "[1]; No Wash", "result": 0.98}, {"measurement": "D-values, Probenecid", "setting": "[1]; No Wash", "result": 0.9}, {"measurement": "D-values, Verapamil", "setting": "[1]; No Wash", "result": 0.81}, {"measurement": "MAF, Cyclosporin A", "setting": "[1]; No Wash", "result": 93.0}, {"measurement": "MAF, Novobiocin", "setting": "[1]; No Wash", "result": 93.5}, {"measurement": "MAF, Probenecid", "setting": "[1]; No Wash", "result": 85.4}, {"measurement": "MAF, Verapamil", "setting": "[1]; No Wash", "result": 77.6}, {"measurement": "D-values, Cyclosporin A", "setting": "[1]; Spin", "result": 0.94}, {"measurement": "D-values, Novobiocin", "setting": "[1]; Spin", "result": 0.97}, {"measurement": "D-values, Probenecid", "setting": "[1]; Spin", "result": 0.9}, {"measurement": "D-values, Verapamil", "setting": "[1]; Spin", "result": 0.76}, {"measurement": "MAF, Cyclosporin A", "setting": "[1]; Spin", "result": 91.5}, {"measurement": "MAF, Novobiocin", "setting": "[1]; Spin", "result": 92.4}, {"measurement": "MAF, Probenecid", "setting": "[1]; Spin", "result": 85.0}, {"measurement": "MAF, Verapamil", "setting": "[1]; Spin", "result": 73.0}, {"measurement": "D-values, Cyclosporin A", "setting": "[1]; Wash", "result": 0.94}, {"measurement": "D-values, Novobiocin", "setting": "[1]; Wash", "result": 0.94}, {"measurement": "D-values, Probenecid", "setting": "[1]; Wash", "result": 0.87}, {"measurement": "D-values, Verapamil", "setting": "[1]; Wash", "result": 0.76}, {"measurement": "MAF, Cyclosporin A", "setting": "[1]; Wash", "result": 91.6}, {"measurement": "MAF, Novobiocin", "setting": "[1]; Wash", "result": 91.3}, {"measurement": "MAF, Probenecid", "setting": "[1]; Wash", "result": 86.2}, {"measurement": "MAF, Verapamil", "setting": "[1]; Wash", "result": 73.5}, {"measurement": "D-value, Fumitremorgan C", "setting": "[2]; [9]", "result": 0.15}, {"measurement": "D-value, Probenecid", "setting": "[2]; [9]", "result": 0}, {"measurement": "D-value, Verapamil", "setting": "[2]; [9]", "result": 0.10}, {"measurement": "D-value, Cyclosporine A", "setting": "[2]; [10]", "result": 0.14}, {"measurement": "D-value, Novobiocin", "setting": "[2]; [10]", "result": 0.09}, {"measurement": "D-value, Probenecid", "setting": "[2]; [10]", "result": 0.15}, {"measurement": "D-value, Verapamil", "setting": "[2]; [10]", "result": 0.04}, {"measurement": "D-value, CyclosporinA", "setting": "[3]", "result": 0.28}, {"measurement": "D-value, MK-571", "setting": "[3]", "result": 0.34}, {"measurement": "D-value, Novobiocin", "setting": "[3]", "result": 0.13}, {"measurement": "D-value, Verapamil", "setting": "[3]", "result": 0}, {"measurement": "Toxicity to the cells (MTT viability)", "setting": "[4]", "result": "not toxic"}]}]}
